Measurements taken from ChEMBL document CHEMBL3044808, “Laboratory and field comparisons of insecticides to reduce infestation of Drosophila suzukii in berry crops” (2011).
Calls of active or inactive are those of the source. The calls are words filed in the database; no cut-off is given here.

Key:
Drosophila suzukii [1] = test: Insecticidal activity against Drosophila suzukii assessed as male mortality at 3.31 g/ha by direct application at 22 degC measured after 24 hr; assay type: functional, organism-based
Drosophila suzukii [2] = test: Insecticidal activity against Drosophila suzukii assessed as male mortality at 41 g/ha by direct application at 22 degC measured after 24 hr; assay type: functional, organism-based
Drosophila suzukii [3] = test: Insecticidal activity against Drosophila suzukii assessed as male mortality at 112.3 g/ha by direct application at 22 degC measured after 24 hr; assay type: functional, organism-based
Drosophila suzukii [4] = test: Insecticidal activity against Drosophila suzukii assessed as male mortality at 2.3 g/ha by direct application at 22 degC measured after 24 hr; assay type: functional, organism-based
Drosophila suzukii [5] = test: Insecticidal activity against Drosophila suzukii assessed as mortality at 70.2 g/ha by direct application at 22 degC measured after 24 hr; assay type: functional, organism-based
Drosophila suzukii [6] = test: Insecticidal activity against Drosophila suzukii assessed as mortality at 41 g/ha by direct application at 22 degC measured after 24 hr; assay type: functional, organism-based
Drosophila suzukii [7] = test: Insecticidal activity against Drosophila suzukii assessed as mortality at 24 g/ha by direct application at 22 degC measured after 24 hr; assay type: functional
Drosophila suzukii [8] = test: Insecticidal activity against Drosophila suzukii assessed as mortality at 56.2 g/ha by direct application at 22 degC measured after 24 hr; assay type: functional
Drosophila suzukii [9] = test: Insecticidal activity against Drosophila suzukii assessed as mortality at 62.3 g/ha by direct application at 22 degC measured after 24 hr; assay type: functional
Drosophila suzukii [10] = test: Insecticidal activity against Drosophila suzukii assessed as mortality at 223.9 g/ha by direct application at 22 degC measured after 24 hr; assay type: functional
Drosophila suzukii [11] = test: Insecticidal activity against Drosophila suzukii assessed as mortality at 112.3 g/ha by direct application at 22 degC measured after 24 hr; assay type: functional, organism-based
Drosophila suzukii [12] = test: Insecticidal activity against Drosophila suzukii assessed as mortality at 1 g/ha by direct application at 22 degC measured after 24 hr; assay type: functional
Drosophila suzukii [13] = test: Insecticidal activity against Drosophila suzukii assessed as mortality at 2.3 g/ha by direct application at 22 degC measured after 24 hr; assay type: functional
Drosophila suzukii [14] = test: Insecticidal activity against Drosophila suzukii assessed as mortality at 2.2 g/ha by direct application at 22 degC measured after 24 hr; assay type: functional
Drosophila suzukii [15] = test: Insecticidal activity against Drosophila suzukii assessed as mortality at 113.8 g/ha by direct application at 22 degC measured after 24 hr; assay type: functional, organism-based
Drosophila suzukii [16] = test: Insecticidal activity against Drosophila suzukii assessed as mortality at 212.5 g/ha by direct application at 22 degC measured after 24 hr; assay type: functional, organism-based
Drosophila suzukii [17] = test: Insecticidal activity against Drosophila suzukii assessed as mortality at 1.1 g/ha by direct application at 22 degC measured after 24 hr; assay type: functional
Drosophila suzukii [18] = test: Insecticidal activity against Drosophila suzukii assessed as mortality at 112.1 g/ha by direct application at 22 degC measured after 24 hr; assay type: functional
Drosophila suzukii [19] = test: Insecticidal activity against Drosophila suzukii assessed as mortality at 112.2 g/ha by direct application at 22 degC measured after 24 hr; assay type: functional
Drosophila suzukii [20] = test: Insecticidal activity against Drosophila suzukii assessed as mortality at 341.5 g/ha by direct application at 22 degC measured after 24 hr; assay type: functional
Drosophila suzukii [21] = test: Insecticidal activity against Drosophila suzukii assessed as mortality at 3.31 g/ha by direct application at 22 degC measured after 24 hr; assay type: functional, organism-based

## CN1COCN(Cc2cnc(Cl)s2)/C1=N\[N+](=O)[O-]
Drosophila suzukii [1]
  Activity: Active
Drosophila suzukii [2]
  Activity: Active
Drosophila suzukii [3]
  Activity: Active
Drosophila suzukii [4]
  Activity: Active
Drosophila suzukii [5]
  Activity: Active

## C/C=C(\C)C(=O)O[C@H]1C[C@@H](OC(C)=O)[C@@]2(C(=O)OC)CO[C@H]3[C@@H](O)[C@@](C)([C@]45O[C@@]4(C)[C@@H]4C[C@H]5O[C@@H]5OC=C[C@@]54O)[C@H]4[C@]1(CO[C@]4(O)C(=O)OC)[C@@H]32
Drosophila suzukii [1]
  Activity: Active
Drosophila suzukii [2]
  Activity: Active
Drosophila suzukii [3]
  Activity: Active
Drosophila suzukii [4]
  Activity: Active
Drosophila suzukii [6]
  Activity: Active

## CC1(C)C(C=C(Cl)Cl)C1C(=O)OC(C#N)c1ccc(F)c(Oc2ccccc2)c1 (stereo not drawn) [CYFLUTHRIN]
Drosophila suzukii [7]
  mortality at 24 g/ha: 100%

## CC(C)[C@H](C(=O)O[C@H](C#N)c1cccc(Oc2ccccc2)c1)c1ccc(Cl)cc1
Drosophila suzukii [8]
  mortality at 56.2 g/ha: 100%

## C=CCC1=C(C)C(OC(=O)C2C(C=C(C)C)C2(C)C)CC1=O (stereo not drawn) [Allethrin]
Drosophila suzukii [9]
  mortality at 62.3 g/ha: 79%

## CC1(C)C(C=C(Cl)Cl)C1C(=O)OCc1cccc(Oc2ccccc2)c1 (stereo not drawn) [PERMETHRIN]
Drosophila suzukii [10]
  mortality at 223.9 g/ha: 100%

## C/C(=N\C#N)N(C)Cc1ccc(Cl)nc1
Drosophila suzukii [1]
  Activity: Active
Drosophila suzukii [2]
  Activity: Active
Drosophila suzukii [3]
  Activity: Active
Drosophila suzukii [4]
  Activity: Active
Drosophila suzukii [11]
  Activity: Active

## CNC(=O)ON=C(C)SC [METHOMYL]
Drosophila suzukii [12]
  mortality at 1 g/ha: 100%

## CCOC(=O)CC(SP(=S)(OC)OC)C(=O)OCC (stereo not drawn) [MALATHION]
Drosophila suzukii [13]
  mortality at 2.3 g/ha: 100%
Drosophila suzukii [14]
  mortality at 2.2 g/ha: 100%

## CNC(=O)c1cc(Cl)cc(C)c1NC(=O)c1cc(Br)nn1-c1ncccc1Cl
Drosophila suzukii [1]
  Activity: Active
Drosophila suzukii [2]
  Activity: Active
Drosophila suzukii [3]
  Activity: Active
Drosophila suzukii [4]
  Activity: Active
Drosophila suzukii [15]
  Activity: Active

## O=C(NC(=O)c1c(F)cccc1F)Nc1ccc(OC(F)(F)C(F)OC(F)(F)F)c(Cl)c1 (stereo not drawn)
Drosophila suzukii [16]
  Activity: Active

## CNC(=O)Oc1cccc2ccccc12 [CARBARIL]
Drosophila suzukii [1]
  Activity: Active
Drosophila suzukii [2]
  Activity: Active
Drosophila suzukii [3]
  Activity: Active
Drosophila suzukii [4]
  Activity: Active
Drosophila suzukii [13]
  mortality at 2.3 g/ha: 100%

## CCOP(=S)(OCC)Oc1cc(C)nc(C(C)C)n1 [DIMPYLATE]
Drosophila suzukii [17]
  mortality at 1.1 g/ha: 100%

## Cc1c(COC(=O)[C@@H]2[C@H](/C=C(\Cl)C(F)(F)F)C2(C)C)cccc1-c1ccccc1 (relative stereo) [BIFENTHRIN]
Drosophila suzukii [18]
  mortality at 112.1 g/ha: 100%
Drosophila suzukii [19]
  mortality at 112.2 g/ha: 100%

## CC1(C)C(C(=O)OC(C#N)c2cccc(Oc3ccccc3)c2)C1(C)C (stereo not drawn) [FENPROPATHRIN]
Drosophila suzukii [20]
  mortality at 341.5 g/ha: 100%

## CC[C@H](C)[C@H]1O[C@]2(C=C[C@@H]1C)C[C@@H]1C[C@@H](C/C=C(\C)[C@@H](O[C@H]3C[C@H](OC)[C@@H](O[C@H]4C[C@H](OC)[C@@H](O)[C@H](C)O4)[C@H](C)O3)[C@@H](C)/C=C/C=C3\CO[C@@H]4[C@H](O)C(C)=C[C@@H](C(=O)O1)[C@]34O)O2.CO[C@H]1C[C@H](O[C@H]2[C@H](C)O[C@@H](O[C@@H]3/C(C)=C/C[C@@H]4C[C@@H](C[C@]5(C=C[C@H](C)[C@@H](C(C)C)O5)O4)OC(=O)[C@@H]4C=C(C)[C@@H](O)[C@H]5OC/C(=C\C=C\[C@@H]3C)[C@]54O)C[C@@H]2OC)O[C@@H](C)[C@@H]1O
Drosophila suzukii [1]
  Activity: Active
Drosophila suzukii [2]
  Activity: Active
Drosophila suzukii [3]
  Activity: Active
Drosophila suzukii [4]
  Activity: Active
Drosophila suzukii [21]
  Activity: Active

## O=S1OCC2C(CO1)C1(Cl)C(Cl)=C(Cl)C2(Cl)C1(Cl)Cl (stereo not drawn)
Drosophila suzukii [17]
  Activity: Active
